“Also recorded” adds a separate entry of the source.
Legend:
seminal vesicles = assay: 3-week daily s.c. treatment of male rats, weight of the seminal vesicles; format: in vivo, Sprague-Dawley rats; settings: for weight of the seminal vesicles (wet weight): male rats
Method: (§1) Adult male Sprague-Dawley rats weighing 275-325 g upon arrival were obtained from Canadian Breeding Laboratories, St. Constant, Quebec, Canada. All animals were housed 2 per cage in an air-conditioned (21±1° C.; 45-50% humidity) and light (12 hours light, 12 hours darkness)-controlled room and given food and water ad libitum. […] Rats were killed by decapitation 24 hours after the last injection. The testes, seminal vesicles and ventral prostate were removed, chilled, weighed and kept frozen at -20° C. until use.

ventral prostate = assay: 3-week daily s.c. treatment of male rats, weight of the ventral prostate; format: in vivo, Sprague-Dawley rats; settings: for weight of the ventral prostate (wet weight): male rats
Method: as §1

testes = settings: in vivo; cited from earlier work
[1] = 25μg s.c. daily, 1 week of treatment
[2] = 25μg s.c. daily, 2 weeks of treatment
[3] = 25μg s.c. daily, 3 weeks of treatment
[4] = 250μg s.c. daily, 1 week of treatment
[5] = 250μg s.c. daily, 2 weeks of treatment
[6] = 250μg s.c. daily, 3 weeks of treatment
[7] = 2500μg s.c. daily, 1 week of treatment
[8] = 2500μg s.c. daily, 2 weeks of treatment
[9] = 2500μg s.c. daily, 3 weeks of treatment
[10] = daily subcutaneous administration to male rats up to three weeks, listed as gonadorelin

Molecule: CC(C)C[C@H](NC(=O)CNC(=O)[C@H](Cc1ccc(O)cc1)NC(=O)[C@H](CO)NC(=O)[C@H](Cc1c[nH]c2ccccc12)NC(=O)[C@H](Cc1cnc[nH]1)NC(=O)[C@@H]1CCC(=O)N1)C(=O)N[C@@H](CCCNC(=N)N)C(=O)N1CCC[C@H]1C(=O)NCC(N)=O [LH-RH, Pyr-His-Trp-Ser-Tyr-Gly-Leu-Arg-Pro-Gly-NH2]
- weight of the seminal vesicles (wet weight) (seminal vesicles; [1]): 281 ± 14 mg
- weight of the seminal vesicles (wet weight) (seminal vesicles; [2]): 247 ± 9 mg
- weight of the seminal vesicles (wet weight) (seminal vesicles; [3]): 260 ± 13 mg
- weight of the seminal vesicles (wet weight) (seminal vesicles; [4]): 298 ± 10 mg
- weight of the seminal vesicles (wet weight) (seminal vesicles; [5]): 249 ± 18 mg
- weight of the seminal vesicles (wet weight) (seminal vesicles; [6]): 210 ± 8 mg
- weight of the seminal vesicles (wet weight) (seminal vesicles; [7]): 265 ± 10 mg
- weight of the seminal vesicles (wet weight) (seminal vesicles; [8]): 236 ± 13 mg
- weight of the seminal vesicles (wet weight) (seminal vesicles; [9]): 225 ± 9 mg
- effect on the weight of seminal vesicles (in words) (seminal vesicles; [10]): significant decrease; also recorded: significantly decreases
- weight of the ventral prostate (wet weight) (ventral prostate; [1]): 359 ± 23 mg
- weight of the ventral prostate (wet weight) (ventral prostate; [2]): 415 ± 31 mg
- weight of the ventral prostate (wet weight) (ventral prostate; [3]): 378 ± 13 mg
- weight of the ventral prostate (wet weight) (ventral prostate; [4]): 360 ± 26 mg
- weight of the ventral prostate (wet weight) (ventral prostate; [5]): 380 ± 38 mg
- weight of the ventral prostate (wet weight) (ventral prostate; [6]): 370 ± 25 mg
- weight of the ventral prostate (wet weight) (ventral prostate; [7]): 325 ± 12 mg
- weight of the ventral prostate (wet weight) (ventral prostate; [8]): 355 ± 31 mg
- weight of the ventral prostate (wet weight) (ventral prostate; [9]): 373 ± 18 mg
- effect on ventral prostate weight (in words) (ventral prostate; [10]): significant decrease; also recorded: significantly decreases

Molecule: [D-Ala^6, des-Gly-NH2^10 ]-LH-RH ethylamide
- selective effect (decrease of seminal vesicle and ventral prostate weight while not affecting testicular weight) (testes): do not show such a selectivity

Molecule: [D-Leu^6,des-Gly-NH2^10 ]-LH-RH ethylamide
- selective effect (decrease of seminal vesicle and ventral prostate weight while not affecting testicular weight) (testes): do not show such a selectivity

From patent US4321260A, “Method of using gonadorelin for the treatment of benign prostatic hyperplasia” (Ayerst, McKenna & Harrison Inc., priority 1980, dated 1982)
